{"source": "patent US20210353650A1", "about": "(priority 2020, published 2021)", "origin": "cited, not measured here", "key": {"[1]": {"conditions": "nonhuman primates, daily administration of 10 mg/kg; EMA 2020"}, "[2]": {"tested_on": "Vero African green monkey kidney epithelial cells", "conditions": "Vero cells used in the CPE assay; 2012 study"}}, "data": [{"smiles": "CCC(CC)COC(=O)[C@H](C)N[P@](=O)(OC[C@H]1O[C@@](C#N)(c2ccc3c(N)ncnn23)[C@H](O)[C@@H]1O)Oc1ccccc1", "note": "[Remdesivir]", "values": [{"measurement": "cytotoxic concentration", "setting": "Vero E6 cells", "value": "> 100", "unit": "mM"}, {"measurement": "intracellular levels of the triphosphate form", "setting": "[1]", "value": "sustained intracellular levels"}, {"measurement": "cytotoxicity toward host cells", "setting": "[2]", "value": "without causing cytotoxicity"}]}]}
